In brackets after ≈: the same amount, converted by molar mass. Activity calls are given as the source filed them. The rule behind the calls is not given here.
Legend:
[1] = Metabolic stability in human liver microsomes assessed as half-life preincubated for 5 mins followed by NADPH addition and measured upto 60 mins by HPLC-MS/MS analysis; assay type: ADME, Microsome; details: time < 65 min
[2] = Cytotoxicity against African green monkey Vero cells assessed as reduction in overall metabolic activity incubated for 5 days by MTS reagent based absorbance method; assay type: toxicity, cell-based; details: chlorocebus sabaeus, time 5 day
[3] = Aqueous solubility of compound at pH 7.4 by HPLC analysis; assay type: physicochemical
[4] = tested on: Chikungunya virus; assay: Antiviral activity against Chikungunya virus infected in African green monkey Vero cells assessed as reduction in viral induced cell death incubated for 5 days by MTS reagent based absorbance method; assay type: functional, organism-based; details: 120 h
[5] = Selectivity index, ratio of CC50 for cytotoxicity against African green monkey Vero cells to EC50 for antiviral activity against Chikungunya virus infected in African green monkey Vero cells assessed as reduction in viral induced cell death; assay type: toxicity, cell-based; details: read-out: Ratio CC50/EC50
[6] = tested on: Chikungunya virus; assay: (§1) Antiviral activity against Chikungunya virus 899 infected in African green monkey Vero cells assessed as log10 reduction in intracellular viral level at 2.22 uM preincubated for 2 hrs with subsequent viral infected followed by media replacement with compound and measured after 48 hrs by qRT-PCR analysis; assay type: functional; details: time 50 hrs
[7] = tested on: Caco-2; assay: Induction of apoptosis in human Caco-2 cells assessed as increase in PARP expression at 6.25 to 100 uM incubated for 72 hrs by Western blot analysis; assay type: toxicity, cell-based; details: caco-2, 72 h, dose 6.25-100 µM
[8] = tested on: Caco-2; assay: Induction of apoptosis in human Caco-2 cells assessed as increase in caspase-3 expression at 6.25 to 100 uM incubated for 72 hrs by Western blot analysis; assay type: toxicity, cell-based; details: caco-2, 72 h, dose 6.25-100 µM
[9] = tested on: Chikungunya virus; assay: Antiviral activity against Chikungunya virus 899 infected in African green monkey Vero cells assessed as reduction in viral RNA replication preincubated for 2 hrs with subsequent viral infected followed by media replacement with compound and measured after 48 hrs by qRT-PCR analysis; assay type: functional, organism-based; details: dose 0.25-60 µM, time 50.0 hrs
[10] = tested on: Chikungunya virus; assay: Fold resistance , ratio of EC50 for antiviral activity against CHVB-resistant Chikungunya virus infected in African green monkey Vero cells to EC50 for antiviral activity against wildtype Chikungunya virus 899 infected in African green monkey Vero cells; assay type: functional
[11] = tested on: Caco-2; assay: Cytotoxicity against human Caco-2 cells incubated for 24 to 72 hrs by MTT assay; assay type: toxicity, cell-based; details: time 24-72 hrs
[12] = tested on: Chikungunya virus; assay: as §1, with “60” for “2.22”; assay type: functional; details: time 50 hrs
[13] = tested on: Zika virus; assay: Antiviral activity against Zika virus infected in African green monkey Vero cells assessed as reduction in virus induced cell death; assay type: functional, organism-based
[14] = tested on: Sindbis virus; assay: Antiviral activity against Sindbis virus HRsp infected in African green monkey Vero cells assessed as reduction in virus induced cell death; assay type: functional, organism-based
[15] = tested on: Enterovirus; assay: Antiviral activity against Human enterovirus 71 infected in African green monkey Vero cells assessed as reduction in virus induced cell death; assay type: functional, organism-based
[16] = tested on: Semliki Forest virus; assay: Antiviral activity against Semliki forest virus infected in African green monkey Vero cells assessed as reduction in virus induced cell death; assay type: functional, organism-based

Row | Compound | half-life [1] [h] | CC50 at 120 h [2] [µM] | solubility [3] [µM] | EC50 [4] [µM] | selectivity ratio [5] | log(activity) [6] | Activity [7] | Activity [8] | Activity [9] | Ratio EC50 [10] | Activity [11] | log(activity) [12] | Activity [13] | Activity [14] | Activity [15] | Activity [16]
1 | CCNc1cc(C)nc(N2CCN(S(=O)(=O)c3ccc4ccccc4c3)CC2)n1 | 0.333 | 17 | 90 (≈ 37 µg/mL) | 10 | 1.7 | – | – | – | – | – | – | – | – | – | – | –
2 | CCNc1nc(C)cc(N2CCCC(NC(=O)c3cc(Cl)cc(Cl)c3)C2)n1 (stereo not drawn) | 0.733 | 12 | 22 (≈ 8.98 µg/mL) | > 100 | < 0.12 | – | – | – | – | – | – | – | – | – | – | –
3 | Cc1cc(N2CCN(C(=O)c3cc(Cl)cc(Cl)c3)CC2)nc(N(C)C)n1 | > 1 | 67 | 109 (≈ 43 µg/mL) | 4.4 | 15 | – | – | – | – | – | – | – | – | – | – | –
4 | CCNc1nc(C)cc(N2CCN(C(=O)c3cccc([N+](=O)[O-])c3)CC2)n1 | > 1 | > 100 | > 120 | 0.7 | > 143 | ~4.5 | Non-Toxic | Non-Toxic | Dose-Dependent Effect | 13.3 | Non-Toxic | – | – | – | – | –
5 | CCNc1nc(C)cc(N2CCN(C(=O)c3ccc(Br)cc3)CC2)n1 | > 1 | > 96 | > 120 | 0.6 | > 159 | ~4.5 | Non-Toxic | Non-Toxic | Dose-Dependent Effect | 8.9 | Non-Toxic | >5 | – | – | – | –
6 | Cc1cc(N2CCN(C(=O)c3ccc(Cl)cc3)CC2)nc(NC(C)C)n1 | > 1 | 46 | 115 (≈ 43 µg/mL) | 18 | 2.6 | – | – | – | – | – | – | – | – | – | – | –
7 | CCNc1nc(C)cc(N2CCN(C(=O)c3ccc(I)cc3)CC2)n1 | > 1 | 58 | 112 (≈ 50.5 µg/mL) | 0.7 | 82 | – | Non-Toxic | Non-Toxic | – | – | Non-Toxic | – | – | – | – | –
8 | CCNc1nc(C)cc(N2CCN(S(=O)(=O)c3ccc(Cl)cc3)CC2)n1 | 0.817 | 11 | 104 (≈ 41.2 µg/mL) | 2.76 | 3.9 | – | – | – | – | – | – | – | – | – | – | –
9 | CCNc1nc(C)cc(N2CCN(C(=O)c3ccc(F)cc3)CC2)n1 | > 1 | 165 | > 120 | 1.52 | 109 | – | Non-Toxic | Non-Toxic | – | – | Non-Toxic | – | inactive | inactive | inactive | inactive
10 | CCNc1nc(C)cc(N2CCN(C(=O)c3cc(Cl)cc(Cl)c3)CC2)n1 | > 1 | 80 | 108 (≈ 42.6 µg/mL) | 0.47 | 173 | – | Non-Toxic | Non-Toxic | Dose-Dependent Effect | 9.7 | Non-Toxic | – | – | – | – | –
11 | CCNc1ccnc(N2CCN(S(=O)(=O)c3ccc(Cl)cc3)CC2)n1 | 0.317 | 28 | 94 (≈ 35.9 µg/mL) | 10 | 2.7 | – | – | – | – | – | – | – | – | – | – | –
12 | CCNc1nc(C)cc(N2CCN(Cc3ccc(F)cc3)CC2)n1 | > 1 | 46 | 106 (≈ 34.9 µg/mL) | 22 | 2.1 | – | – | – | – | – | – | – | – | – | – | –
13 | CCNc1nc(C)cc(N2CCN(C(=O)c3ccc(Cl)c(C(F)(F)F)c3)CC2)n1 | > 1 | > 20 | 101 (≈ 43.2 µg/mL) | 1.9 | > 11 | – | – | – | – | – | – | – | – | – | – | –
14 | CCNc1cc(N2CCN(S(=O)(=O)c3ccc(Cl)cc3)CC2)ncn1 | > 1 | 44 | 95 (≈ 36.3 µg/mL) | 15.9 | 2.7 | – | – | – | – | – | – | – | – | – | – | –
15 | CCNc1nc(C)cc(N2CCN(C(=O)c3ccccc3)CC2)n1 | > 1 | > 308 | > 120 | 2.05 | > 150 | – | – | – | – | – | – | – | – | – | – | –
16 | CCNc1nc(C)cc(N2CCN(C(=O)c3ccc(Cl)c([N+](=O)[O-])c3)CC2)n1 | > 1 | > 20 | > 120 | 0.98 | > 20 | – | – | – | – | – | – | – | – | – | – | –
17 | CCNc1nc(C)cc(N2CCN(C(=O)c3ccc(C)c(C)c3)CC2)n1 | > 1 | 65 | 118 (≈ 41.7 µg/mL) | 0.95 | 68 | – | – | – | – | – | – | – | – | – | – | –
18 | Cc1cc(N2CCN(C(=O)c3ccc(Br)cc3)CC2)nc(N(C)C)n1 | > 1 | > 100 | > 120 | 6.6 | > 15 | – | – | – | – | – | – | – | – | – | – | –
